From patent US6664285B1, “Use of cell membrane penetrating indigoid bisindole derivatives” (priority 1999, dated 2003) come the findings set out here.

Like-named read-outs stand apart in the source and are kept apart here. A value given as a limit tells only on which side of the number the result lay.

One test deals with PAXF546 (pancreatic). The experiment in a line: Colony-forming assay. The class given is cell-based, human.
For test [1], the system named is LXFL529 (lung large-cell). Nature of the test: Colony-forming assay. It counts as cell-based, human.
The test system of another test is PAXF736 (pancreatic). Nature of the test: Colony-forming assay. The class given is cell-based, human.
A further test relates to OVXF1355 (ovarian). The experiment in a line: Colony-forming assay. The class given is cell-based, human.
The subject of the next test is MCF7X (mammary). The experiment in a line: Colony-forming assay. The class given is cell-based, human. To be noted: for IC50: read-out: IC50 colony formation.
Test [2] concerns LXFS650 (lung small-cell). The experiment in a line: Colony-forming assay. The class given is cell-based, human. To be noted: for IC50: Homo sapiens, read-out: IC50 colony formation.
The next test has as its system CXF280 (colon). Nature of the test: Colony-forming assay. To be noted: for IC50: read-out: IC50 colony formation. The class given is cell-based, human.
The next test deals with MX1 (mammary). The experiment in a line: Colony-forming assay. Conditions: for IC50: Homo sapiens, read-out: IC50 colony formation. It counts as cell-based, human.
For a further test, the system named is BXF1301 (bladder). Nature of the test: Colony-forming assay. The class given is cell-based, human.
The test system of test [3] is human tumor xenograft LXFL 529. The experiment in a line: In vivo testing in nude mice bearing subcutaneous tumor xenograft. The method, then: Compound of Examples 1, 4, 6, 8, 9 and 10 were subjected to in vivo testing in nude mice bearing subcutaneously growing human tumor xenograft LXFL 529. The indigoid bisindole derivatives were applied intraperitoneally to the animals in doses and according to the schedule as described in Table 4.
The experiments were run for 21 or 28 days. Anti-tumor activity was evaluated comparing the median tumor volume relative to control, expressed as %T/C, wherein T is the test group and C the vehicle control group. In Table 4, anti-tumor activity is given according to an activity rate scale.

For another test, the system named is MEXF989 (melanoma). Nature of the test: Colony-forming assay. The class given is cell-based, human.
For another test, the system named is HT29X (colon). Nature of the test: Colony-forming assay. To be noted: colon HT29X; for IC50: Homo sapiens, read-out: IC50 colony formation. The class given is cell-based, human.
The next test relates to MEXF515LX (melanoma). Nature of the test: Colony-forming assay. The class given is cell-based, human.
In a further test the test system is OVXF899 (ovarian). On the procedure: The anti-tumor activity of the compounds was evaluated via a colony-forming-assay as described e.g. by D. P. Berger et al. in Annals of Oncology 1, pages 333-341 (1 990), “The clonongenic assay with human tumor xenografts, evaluation, predictive values and application for drug screening”.
The experiments were conducted using various tumor cell lines, in particular mammary carcinoma (MAXF), lung adenocarcinoma (LXFA), large-cell lung carcinoma (LXFL), small-cell lung carcinoma (LXFS), colon carcinoma (CXF), melanoma (MEXF), pancreatic carcinoma (PAXF), renal carcinoma (RXF), ovarian carcinoma (OVXF) and bladder carcinoma (BXF).

Test [4] deals with LXFA289 (lung adenocarcinoma). The experiment in a line: Colony-forming assay. It counts as cell-based, human.
The next test relates to BXF1299 (bladder). The experiment in a line: Colony-forming assay. The class given is cell-based, human.
The mark [5] stands for this setting: Homo sapiens, read-out: IC50 colony formation.
[6] abbreviates: read-out: IC50 colony formation.

For the compound `O=C1Nc2ccccc2/C1=C1\C(=O)Nc2ccccc21` [Example 10, Isoindigo], the IC70 colony formation in the test on PAXF546 (pancreatic) was less than 1000 nM; in test [1] it was 4500 nM; in the test on PAXF736 (pancreatic), less than 1000 nM; in the test with OVXF1355 (ovarian) it was less than 1000 nM; in the test with MCF7X (mammary), less than 1000 nM; in test [2], less than 1000 nM. Further, the IC70 colony formation in the test with CXF280 (colon) was less than 1000 nM; in the test on MX1 (mammary) it was less than 1000 nM; with BXF1301 (bladder) it was 8200 nM; in the test on MEXF989 (melanoma), less than 1000 nM; in the test with HT29X (colon), less than 1000 nM. In addition, the 50% inhibitory concentration (IC50) – broadly, the concentration that gives 50% inhibition – was less than 1000 nM in the test on PAXF546 (pancreatic) (setting [5]); 2600 nM in test [1] (Homo sapiens, LXFL 529, read-out: IC50 colony formation); less than 1000 nM with PAXF736 (pancreatic) (setting [5]); less than 1000 nM in the test with OVXF1355 (ovarian) (setting [5]); less than 1000 nM in the test on MCF7X (mammary) (Homo sapiens); less than 1000 nM in test [2]. Further, the IC50 in the test with CXF280 (colon) (Homo sapiens) was less than 1000 nM; in the test with MX1 (mammary), less than 1000 nM; with BXF1301 (bladder) (setting [5]), 6000 nM; in the test with MEXF989 (melanoma) (Homo sapiens, MEXF 989, read-out: IC50 colony formation), less than 1000 nM; in the test with HT29X (colon), less than 1000 nM. The activity rating result was “− (inactive T/C > 50%)” in test [3] (30 mg/kg/day i.p., days 1-5); “− (inactive T/C > 50%)” in [3] (100 mg/kg/day i.p., days 1-5); “+ (tumor inhibition T/C > 25-50%)” in test [3] (300 mg/kg/day i.p., days 1-5).
On to `O=C1Nc2ccc(S(=O)(=O)NCCO)cc2C1=C1Nc2ccccc2C1=O` [Example 13, Indirubin-5-sulfone(2-hydroxyethyl)amide], for which the IC70 colony formation in the test on MEXF515LX (melanoma) stood at 400 nM; in the test on OVXF899 (ovarian), 400 nM; in test [1] it was 5900 nM; in the test with MCF7X (mammary) it was 2100 nM; in the test with CXF280 (colon), 17300 nM; in test [4] it was 2600 nM. For the same compound, the IC50 was less than 100 nM with MEXF515LX (melanoma) (setting [6]); 300 nM in the test on OVXF899 (ovarian) (setting [6]); 3400 nM in test [1] (setting [6]); 600 nM with MCF7X (mammary); 12000 nM with CXF280 (colon); 1100 nM in test [4] (setting [6]).
Regarding `c1ccc(-c2c(-c3[nH]c4ccccc4c3-c3ccccc3)[nH]c3ccccc23)cc1` [Example 14, Bis(3-phenylindol-2-yl)], the IC70 colony formation in [2] is 6700 nM; in the test on BXF1299 (bladder), 6200 nM; with CXF280 (colon), 7200 nM; in the test with MX1 (mammary) it was 4800 nM; in the test on HT29X (colon), 3400 nM. Moreover, the IC50 was 4700 nM in test [2]; 2700 nM with BXF1299 (bladder) (setting [5]); less than 1000 nM in the test with CXF280 (colon) (Homo sapiens); 2800 nM with MX1 (mammary); 1600 nM in the test on HT29X (colon). Besides, the activity rating result was “− (inactive T/C > 50%)” in test [3] (10 mg/kg/day i.p., days 1-5, 8-12); “+ (tumor inhibition T/C > 25-50%)” in test [3] (100 mg/kg/day i.p., days 1-5, 8-12); “+ (tumor inhibition T/C > 25-50%)” in test [3] (300 mg/kg/day i.p., days 1-5, 8-12).
